Source: patent publication US20090105225A1, “2-Substituted 4-Benzylphthalazinone Derivatives as Histamine H1 and H3 Antagonists” (GLAXO GROUP LIMITED, priority 2006, published 2009)
Counter-ions that a name gives are not always drawn.

What was measured:
[1] = CNS penetration (intravenous bolus or steady-state infusion, brain and blood concentration); type: in vivo, rat; settings: compared with azelastine
Protocol: Compounds are dosed intravenously at a nominal dose level of 1 mg/kg to male CD Sprague Dawley rats. Compounds are formulated in 5% DMSO/45% PEG200/50% water. Blood samples are taken under terminal anaesthesia with isoflurane at 5 min post-dose and the brains are also removed for assessment of brain penetration. Blood samples are taken directly into heparinised tubes. Blood samples are prepared for analysis using protein precipitation and brain samples are prepared using extraction of drug from brain by homogenisation and subsequent protein precipitation. The concentration of parent drug in blood and brain extracts is determined by quantitative LC-MS/MS analysis using compound-specific mass transitions.
A loading dose of the compounds is given to male CD Sprague Dawley rats at a nominal dose level of 0.4 mg/kg. The compounds are then infused intravenously for 4 h at a nominal dose level of 0.1 mg/kg/h. Compounds are formulated in 2% DMSO/30% PEG200/68% water. Serial or terminal blood samples are taken at 0.5, 1.5, 2.5, 3, 3.5 and 4 h post dose. The final blood sample is collected under terminal anaesthesia with isoflurane and the brains are also removed for assessment of brain penetration. Blood samples are taken directly into heparinised tubes. Blood samples are prepared for analysis using protein precipitation and brain samples are prepared using extraction of drug from brain by homogenisation and subsequent protein precipitation. The concentration of parent drug in blood and brain extracts is determined by quantitative LC-MS/MS analysis using compound-specific mass transitions.

[2] = biological target: T1, human H1 receptor (Homo sapiens, UniProt P35367); assay: Histamine H1 functional antagonist assay (FLIPR): determination of antagonist pA2 and duration; type: cell-based; settings: at one or more time points; compared with azelastine
T1 construct: expressed in transfected cells
T1 sequence (P35367 whole entry): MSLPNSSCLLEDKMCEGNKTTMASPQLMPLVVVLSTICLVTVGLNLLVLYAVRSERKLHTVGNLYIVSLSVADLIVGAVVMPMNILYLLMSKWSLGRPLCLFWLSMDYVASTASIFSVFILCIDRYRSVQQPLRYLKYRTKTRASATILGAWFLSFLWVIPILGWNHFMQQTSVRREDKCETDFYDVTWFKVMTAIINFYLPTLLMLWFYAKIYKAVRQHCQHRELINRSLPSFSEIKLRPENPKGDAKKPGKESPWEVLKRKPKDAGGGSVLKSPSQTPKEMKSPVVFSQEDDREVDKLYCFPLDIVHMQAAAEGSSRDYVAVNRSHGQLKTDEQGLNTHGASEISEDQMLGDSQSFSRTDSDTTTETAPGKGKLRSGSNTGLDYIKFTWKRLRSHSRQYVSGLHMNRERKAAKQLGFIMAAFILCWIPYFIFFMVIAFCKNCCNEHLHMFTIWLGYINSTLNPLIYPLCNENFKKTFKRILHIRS
Protocol: The human H1 receptor is cloned using known procedures described in the literature [Biochem. Biophys. Res. Commun., 201(2):894 (1994)]. Chinese hamster ovary (CHO) cells stably expressing the human H1 receptor are generated according to known procedures described in the literature [Br. J. Pharmacol., 117(6):1071 (1996)].
The histamine H1 receptor expressing CHO cells are seeded into non-coated black-walled clear bottom 96-well tissue culture plates as described above.
Following overnight culture, growth medium is removed from each well, washed with 200 μl phosphate buffered saline (PBS) and is replaced with 50 μl loading dye (250 μM Brilliant Black, 1 μM Fluo-4 diluted in Tyrodes buffer+probenecid (145 mM NaCl, 2.5 mM KCl, 10 mM HEPES, 10 mM D-glucose, 1.2 mM MgCl2, 1.5 mM CaCl2, 2.5 mM probenecid, pH adjusted to 7.40 with NaOH 1.0 M)). Cells are incubated for 45 min at 37° C. The loading buffer is removed and the cells are washed as above, and 90 μl of Tyrodes buffer+probenecid is added to each well. 10 μl of test compound, diluted to the required concentration in Tyrodes buffer+probenecid (or 10 μl Tyrodes buffer+probenecid as a control) is added to each well and the plate is incubated for 30 min at 37° C., 5% CO2.
The plates are then placed into a FLIPR™ (Molecular Devices, UK) to monitor cell fluorescence (λex=488 nm, λEM=540 nm) in the manner described in Sullivan et al., (In: Lambert D G (ed.), Calcium Signaling Protocols, New Jersey: Humana Press, 1999, 125-136) before and after the addition of 50 μl histamine over a concentration range of 1 mM-0.1 nM. The resultant concentration response curves are analysed by non-linear regression using a standard four parameter logistic equation to determine the histamine EC50, the concentration of histamine required to produce a response of 50% of the maximum response to histamine. The antagonist pA2 is calculated using the following standard equation: pA2=log(DR−1)−log [B] where DR=dose ratio, defined as EC50 antagonist-treated/EC50 control and [B]=concentration of antagonist.
To determine the antagonist duration, cells are cultured overnight in non-coated black-walled clear bottom 96-well tissue culture plates, are washed with PBS and are incubated with a concentration of antagonist chosen to give an approximate DR in the range 30-300. Following the 30 min antagonist incubation period, the cells are washed two or three times with 200 μl of PBS and then 100 μl Tyrodes buffer is added to each well to initiate antagonist dissociation. Following incubation for predetermined times, typically 30-270 min at 37° C., the cells are then washed again with 200 μl PBS and are incubated with 100 μl Tyrodes buffer containing Brilliant Black, probenecid and Fluo-4 for 45 min at 37° C., as described above. After this period, the cells are challenged with histamine in the FLIPR™ as described above. The dose ratio at each time point is used to determine the fractional H1 receptor occupancy by the following equation: fractional receptor occupancy=(DR-1)/DR. The decrease in receptor occupancy over time approximates to a straight line and is analysed by linear regression. The slope of this straight line fit is used as an index of the dissociation rate of the antagonist. The dose ratios for antagonist treated cells and for antagonist treated and washed cells at each time point are used to calculate a relative dose ratio (rel DR) which is also used as an index of antagonist duration. Antagonists with long duration of action produce rel DR values close to 1, and antagonists with short duration of action produce rel DR values that approaches the dose ratio value obtained for antagonist treatment alone.

[3] = system: histamine-induced congestion; assay: Intranasal histamine challenge, whole body plethysmography; type: in vivo; settings: 24 hours after dosing; compared to azelastine; Guinea Pig whole body plethysmography model (FIG. 3)
Protocol: Female Dunkin-Hartley guinea pigs 150-250 g are sensitised twice daily for 5 days (week 1) with ovalbumin (OVA) and aluminium hydroxide (Al(OH)3 or Alum) in physiological saline, 25 μl/nostril. Solution is made up at 20 μg/ml OVA, 180 mg/ml Alum. During weeks 2 and 3, animals receive 25 μl/nostril of OVA (5 mg/ml) once daily. During Week 4 guinea pigs will be entered into study but are continually sensitized as per weeks 2 and 3 until the day before dosing with compound or vehicle.
Pretreatment with test compound is performed at various times prior to histamine challenge. Efficacy dose-response curves are determined 1 h after dosing whereas duration of action is studied up to 7 days post dose. Test compounds are formulated as solutions in 0.9% sterile saline or suspensions in 0.9% sterile saline/tween80. […]
After the stipulated pre-dose time has been reached, guinea pigs are re-anaesthetised with isoflurane and dosed with either 15 mM histamine or phosphate-buffered saline (PBS), (25 μl per nostril). […] Data are analysed using ANOVA with post-hoc Fishers LSD test (general linear models, Statistica®) and finally Hochberg adjustment. Inhibition of histamine-induced congestion is determined by statistically significant differences between the mean responses of compound pre-treated groups compared to the vehicle pre-treated, histamine-challenged group.

Row | Compound | CNS penetration [1] | duration of action in the histamine H1 functional antagonist assay [2] | inhibition of nasal congestion [3]
1 | COc1ccc(Cc2nn(C[C@H]3CCCN3CCCCc3ccc(OCCCN4CCCCCC4)cc3)c(=O)c3ccccc23)cc1 [Example 7, 2-({(2R)-1-[4-(4-{[3-(Hexahydro-1H-azepin-1-yl)propyl]oxy}phenyl)butyl]-2-pyrrolidinyl}methyl)-4-{[4-(methyloxy)phenyl]methyl}-1(2H)-phthalazinone Diformate] | lower CNS penetration than azelastine | longer duration of action than azelastine | –
2 | O=c1c2ccccc2c(Cc2ccc(O)cc2)nn1C[C@H]1CCCN1CCCCc1ccc(OCCCN2CCCCCC2)cc1 [Example 8, 2-({(2R)-1-[4-(4-{[3-(Hexahydro-1H-azepin-1-yl)propyl]oxy}phenyl)butyl]-2-pyrrolidinyl}methyl)-4-[(4-hydroxyphenyl)methyl]-1(2H)-phthalazinone] | – | longer duration of action than azelastine | –
3 | O=c1c2ccccc2c(Cc2ccc(F)cc2)nn1C[C@H]1CCCN1CCCCc1ccc(OCCCN2CCCCCC2)cc1 [Example 9, 4-[(4-Fluorophenyl)methyl]-2-({(2R)-1-[4-(4-{[3-(hexahydro-1H-azepin-1-yl)propyl]oxy}phenyl)butyl]-2-pyrrolidinyl}methyl)-1(2H)-phthalazinone] | – | longer duration of action than azelastine | –
4 | O=c1c2ccccc2c(Cc2ccc(Cl)cc2)nn1C[C@H]1CCCN1CCCOc1ccc2c(c1)CCN(C1CCC1)CC2 [Example 15, 4-[(4-Chlorophenyl)methyl]-2-[((2R)-1-{3-[(3-cyclobutyl-2,3,4,5-tetrahydro-1H-3-benzazepin-7-yl)oxy]propyl}-2-pyrrolidinyl)methyl]-1(2H)-phthalazinone] | – | longer duration of action than azelastine | –
5 | O=c1c2ccccc2c(Cc2ccc(Cl)cc2)nn1C1CCCN(CCCOc2ccc3c(c2)CCN(C2CCC2)CC3)CC1 (centres unmarked) [Example 16, 4-[(4-Chlorophenyl)methyl]-2-(1-{3-[(3-cyclobutyl-2,3,4,5-tetrahydro-1H-3-benzazepin-7-yl)oxy]propyl}hexahydro-1H-azepin-4-yl)-1(2H)-phthalazinone Formate Salt] | comparable CNS penetration to azelastine | – | –
6 | O=C(NCCN1CCCC(n2nc(Cc3ccc(Cl)cc3)c3ccccc3c2=O)CC1)c1ccc2c(c1)CCN(C1CCC1)CC2 (centres unmarked) [Example 18, N-(2-{4-[4-[(4-Chlorophenyl)methyl]-1-oxo-2(1H)-phthalazinyl]hexahydro-1H-azepin-1-yl}ethyl)-3-cyclobutyl-2,3,4,5-tetrahydro-1H-3-benzazepine-7-carboxamide Diformate Salt] | – | longer duration of action than azelastine | –
7 | O=c1c2ccncc2c(Cc2ccc(Cl)cc2)nn1C[C@H]1CCCN1CCCCc1ccc(OCCCN2CCCCCC2)cc1 [Example 23] | – | longer duration of action than azelastine | –
8 | O=c1c2ccccc2c(Cc2ccc(Cl)cc2)nn1C[C@H]1CCCN1CCCCc1ccc(OCCCN2CCCCCC2)cc1 [Example 24, 4-[(4-Chlorophenyl)methyl]-2-({(2R)-1-[4-(4-{[3-(hexahydro-1H-azepin-1-yl)propyl]oxy}phenyl)butyl]-2-pyrrolidinyl}methyl)-1(2H)-phthalazinone Free Base] | lower CNS penetration than azelastine | significantly longer duration of action than azelastine | statistically significant inhibition of nasal congestion
